Experimental data as given in patent US20160002247A1, “8-SUBSTITUTED IMIDAZOPYRIMIDINONE DERIVATIVE HAVING AUTOTAXIN INHIBITORY ACTIVITY” (THE UNIVERSITY OF TOKYO, priority 2013, published 2016).

The compounds below were run against T1, Human autotaxin enzyme (Homo sapiens, UniProt Q13822) (assay: Evaluation of autotaxin inhibitor, Method C (Test Example 3): 18:0 Lyso PC, choline assay, Resorufin fluorescence). Conditions: Assay Method C (Test Example 3), human autotaxin, 18:0 Lyso PC substrate; read-out: Inhibitory Activity (autotaxin enzyme inhibitory activity, IC50 class).
T1 construct: purchased R&D System
Type: biochemical
Description: (Method C) Evaluation of Autotaxin Inhibitor
Solution B containing 100 mM Tris-HCl buffer (pH7.5), 150 mM NaCl, 5 mM MgCl2 and 0.05% Triton X-100 was prepared. Human autotaxin enzyme (purchased from R&D System) was diluted with Solution B, and 2.5 μL of which was added to a solution of test compound in DMSO. Furthermore, 2.5 μl of 200 μM 18:0 Lyso PC (purchased from Avanti Polar Lipids) in Solution B was added and allowed to react at room temperature for 2 hours. After completion of the reaction, 15 μL of the coline assay reagent (100 mM Tris-HCl buffer (pH7.5), 5 mM MgCl2, 77 μg/mL choline oxidase, 10 μg/mL peroxidase, 25 μM 10-acetyl-3,7-dihydroxyphenoxazine and excess autotaxin inhibitor) was added and allowed to react at room temperature for 20 minutes. The fluorescent dye Resorufin, which was produced by the reaction, was detected. The fluorescence was detected using ViewLux (PerkinElmer, Inc.) with an excitation wavelength of 531 nm and a fluorescence wavelength of 598 nm.
The percent inhibition of the test compound was calculated by assuming the sample with no test compound as 0% inhibition and the sample with no enzyme as 100% inhibition, and the percent inhibitions at different concentrations of the test compound were plotted to obtain a concentration-dependent curve.

SMILES | IC50 [µM]
Cc1cc(=O)n2cc(-c3ccc(Cl)cc3)nc2n1CCCCCC#N [Compound 98] | 0.01 to 0.1
Cc1cc(=O)n2cc(-c3ccc(Cl)cc3)nc2n1Cc1c(F)cccc1F [Compound 119] | 0.1 to 1
O=c1cc(Cl)[nH]c2nc([C@H]3CC[C@H](C(F)(F)F)CC3)cn12 [Compound 135, 7-chloro-2-((1r,4r)-4-(trifluoromethyl)cyclohexyl)imidazo[1,2-a]pyrimidin-5(8H)-one] | > 1
NC(=O)c1ccc(-c2cc(=O)n3cc([C@H]4CC[C@H](C(F)(F)F)CC4)nc3n2CCCC(F)(F)F)cc1 [Compound 136, 4-(5-oxo-8-(4,4,4-trifluorobutyl)-2-((1r,4r)-4-(trifluoromethyl)cyclohexyl)-5,8-dihydroimidazo[1,2-a]pyrimidine-7-yl)benzamide] | 0.1 to 1
CCCCCn1c(C)cc(=O)n2cc(C3CCC(C(F)(F)F)CC3)nc12 (centres unmarked) [Compound 137] | 0.1 to 1
O=C(O)c1ccc(-c2cc(=O)n3cc([C@H]4CC[C@H](C(F)(F)F)CC4)nc3n2CCCC(F)(F)F)cc1 [Compound 164] | 0.01 to 0.1
O=C(NCCN1CC2(COC2)C1)c1ccc(-c2cc(=O)n3cc([C@H]4CC[C@H](C(F)(F)F)CC4)nc3n2CCCC(F)(F)F)cc1 [Compound 165] | 0.01 to 0.1
CCCCCn1c(C)cc(=O)n2cc(-c3ccc(C(=O)O)cc3)nc12 [Compound 166] | > 1
CCCCCn1c(N2CCN(CCC(=O)c3ccc4[nH]c(=O)oc4c3)CC2)cc(=O)n2cc(-c3ccc(Cl)cc3)nc12 [Compound 190] | 0.01 to 0.1
CCCCCn1c(NCc2ccc(C(=O)O)cc2)cc(=O)n2cc(-c3ccc(Cl)cc3)nc12 [Compound 192] | 0.01 to 0.1
CCCCCn1c(OCc2ccc(C(=O)O)cc2)cc(=O)n2cc(-c3ccc(Cl)cc3)nc12 [Compound 194] | 0.01 to 0.1
CCCCCn1c(N(C)Cc2ccc(C(=O)O)cc2)cc(=O)n2cc(-c3ccc(Cl)cc3)nc12 [Compound 197] | 0.01 to 0.1
N#CCCCCn1c(NCc2ccc(C(=O)O)cc2)cc(=O)n2cc(-c3ccc(C(F)(F)F)cc3)nc12 [Compound 198] | 0.01 to 0.1
CCCCCn1c(C)c(CC(=O)OCC)c(=O)n2cc(-c3ccc(Cl)cc3)nc12 [Compound 202] | 0.01 to 0.1
CCCCCn1c(C)c(CCO)c(=O)n2cc(-c3ccc(Cl)cc3)nc12 [Compound 207] | 0.01 to 0.1
CCCCCn1c(N(C)Cc2ccccc2)cc(=O)n2cc(-c3ccc(Cl)cc3)nc12 [Compound 219] | 0.01 to 0.1
CCCCCn1c(N2CCN(C(C)=O)CC2)cc(=O)n2cc(-c3ccc(Cl)cc3)nc12 [Compound 242] | 0.01 to 0.1
N#CCCCCn1c(N2CCC(C(=O)O)CC2)cc(=O)n2cc(-c3ccc(Cl)cc3)nc12 [Compound 282] | 0.01 to 0.1
N#CCCCCn1c(N2CCC(C(=O)O)CC2)cc(=O)n2cc(-c3ccc(C#N)cc3)nc12 [Compound 284] | 0.01 to 0.1
N#CCCCCn1c(NCc2ccc(C(=O)O)cc2)cc(=O)n2cc(-c3ccc(C#N)cc3)nc12 [Compound 288] | 0.01 to 0.1
CCCCCn1c(N2CCN(C(=O)N3CCCCC3)CC2)cc(=O)n2cc(-c3ccc(Cl)cc3)nc12 [Compound 291] | 0.1 to 1
CCCCCn1c(N2CCN(C(=O)c3ccc([N+](=O)[O-])cc3)CC2)cc(=O)n2cc(-c3ccc(Cl)cc3)nc12 [Compound 292] | 0.1 to 1
CCCCCn1c(N2CCNC(=O)C2)cc(=O)n2cc(-c3ccc(Cl)cc3)nc12 [Compound 293] | 0.1 to 1
CCCCCn1c(N2CCC(NC(C)=O)CC2)cc(=O)n2cc(-c3ccc(Cl)cc3)nc12 [Compound 294] | 0.1 to 1

SMILES | IC50 [µM]
CCCCCn1c(N2CCC(C(=O)NC)CC2)cc(=O)n2cc(-c3ccc(Cl)cc3)nc12 [Compound 295] | 0.1 to 1
CCCCCn1c(N2CCN(S(=O)(=O)N3CCOCC3)CC2)cc(=O)n2cc(-c3ccc(Cl)cc3)nc12 [Compound 296] | 0.1 to 1
CCCCCn1c(N2CCN(S(=O)(=O)N(C)C)CC2)cc(=O)n2cc(-c3ccc(Cl)cc3)nc12 [Compound 297] | 0.1 to 1
CCCCCn1c(N2CCC(NS(C)(=O)=O)CC2)cc(=O)n2cc(-c3ccc(Cl)cc3)nc12 [Compound 298] | 0.1 to 1
CCCCCn1c(N2CCC(C(=O)N3CCCC3=O)CC2)cc(=O)n2cc(-c3ccc(Cl)cc3)nc12 [Compound 299] | 0.01 to 0.1
CCCCCn1c(N2CCCC(C)C2)cc(=O)n2cc(-c3ccc(Cl)cc3)nc12 (centres unmarked) [Compound 300] | 0.1 to 1
CCCCCn1c(N2CCCC(CO)C2)cc(=O)n2cc(-c3ccc(Cl)cc3)nc12 (centres unmarked) [Compound 301] | 0.1 to 1
CCCCCn1c(N2CCCCC2CCO)cc(=O)n2cc(-c3ccc(Cl)cc3)nc12 (centres unmarked) [Compound 302] | 0.01 to 0.1
CCCCCn1c(N2CC(C)CC(C)C2)cc(=O)n2cc(-c3ccc(Cl)cc3)nc12 (centres unmarked) [Compound 303] | > 1
CCCCCn1c(N2CCC[C@H]2CO)cc(=O)n2cc(-c3ccc(Cl)cc3)nc12 [Compound 304] | 0.1 to 1
CCCCCn1c(N2CCCC(c3ccccc3)C2)cc(=O)n2cc(-c3ccc(Cl)cc3)nc12 (centres unmarked) [Compound 305] | > 1
CCCCCn1c(N2CCCC2c2ccccc2)cc(=O)n2cc(-c3ccc(Cl)cc3)nc12 (centres unmarked) [Compound 306] | 0.01 to 0.1
CCCCCn1c(N2CCCC(C3CCCCC3)C2)cc(=O)n2cc(-c3ccc(Cl)cc3)nc12 (centres unmarked) [Compound 307] | > 1
CCCCCn1c(N2CCCC2CC(C)C)cc(=O)n2cc(-c3ccc(Cl)cc3)nc12 (centres unmarked) [Compound 308] | 0.01 to 0.1
CCCCCn1c(N2CC=CC2)cc(=O)n2cc(-c3ccc(Cl)cc3)nc12 [Compound 309] | 0.01 to 0.1
CCCCCn1c(N2CCC(F)(F)CC2)cc(=O)n2cc(-c3ccc(Cl)cc3)nc12 [Compound 310] | 0.1 to 1
CCCCCn1c(N2CCCC(CNC(=O)OC(C)(C)C)C2)cc(=O)n2cc(-c3ccc(Cl)cc3)nc12 (centres unmarked) [Compound 311] | 0.1 to 1
CCCCCn1c(N2CCC3CN(C(=O)OC(C)(C)C)CC32)cc(=O)n2cc(-c3ccc(Cl)cc3)nc12 (centres unmarked) [Compound 312] | 0.01 to 0.1
CCCCCn1c(N2CCC3(CN(C(=O)OC(C)(C)C)C3)C2)cc(=O)n2cc(-c3ccc(Cl)cc3)nc12 [Compound 313] | 0.1 to 1
CCCCCn1c(N2CC3CN(C(=O)OC(C)(C)C)CC3C2)cc(=O)n2cc(-c3ccc(Cl)cc3)nc12 (centres unmarked) [Compound 314] | > 1
CCCCCn1c(N2CCCC(CC(=O)OCC)C2)cc(=O)n2cc(-c3ccc(Cl)cc3)nc12 (centres unmarked) [Compound 315] | 0.1 to 1
CCCCCn1c(N2CCCC(O)(c3ccc(F)cc3)C2)cc(=O)n2cc(-c3ccc(Cl)cc3)nc12 (centres unmarked) [Compound 317] | > 1
CCCCCn1c(N2CCC[C@H]2C(=O)Nc2ccccc2)cc(=O)n2cc(-c3ccc(Cl)cc3)nc12 [Compound 318] | 0.1 to 1

Same assay, conditions: Assay Method: Method C (Test Example 3); read-out: Inhibitory Activity (Enzyme Inhibitory Activity, IC50)

SMILES | IC50 [µM]
CCCC(=O)Cn1c(C)cc(=O)n2cc(-c3ccc(Cl)cc3)nc12 [Compound 41] | 0.1 to 1
Cc1cc(=O)n2cc(-c3ccc(Cl)cc3)nc2n1CCCC(C)O (centres unmarked) [Compound 46] | > 1
CCC(O)CCn1c(C)cc(=O)n2cc(-c3ccc(Cl)cc3)nc12 (centres unmarked) [Compound 47] | > 1
CCC(=O)CCn1c(C)cc(=O)n2cc(-c3ccc(Cl)cc3)nc12 [Compound 48] | > 1
Cc1cc(=O)n2cc(-c3ccc(Cl)cc3)nc2n1CCCC(C)F (centres unmarked) [Compound 49] | 0.1 to 1
Cc1cc(=O)n2cc(-c3ccc(Cl)cc3)nc2n1CCCCC#N [Compound 63] | 0.1 to 1
